According to PubChem BioAssay (NCI):
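Protocol summary: plate cells (96-well), add compound at 5 concentrations, incubate 48 h, interpolate endpoints linearly. TGI is the concentration that stops growth completely.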

How the values were obtained:
Assay in all cases: NCI anticancer screen, dose series, 48 h
UO-31 renal = tested on: UO-31 renal
OVCAR-3 ovarian = tested on: OVCAR-3 ovarian
LOX IMVI melanoma = tested on: LOX IMVI melanoma
OVCAR-8 ovarian = tested on: OVCAR-8 ovarian
HCT-116 colon = tested on: HCT-116 colon
SF-268 CNS = tested on: SF-268 CNS
SK-MEL-2 melanoma = tested on: SK-MEL-2 melanoma
IGROV1 ovarian = tested on: IGROV1 ovarian
K-562 leukemia = tested on: K-562 leukemia
SNB-19 CNS = tested on: SNB-19 CNS
M14 melanoma = tested on: M14 melanoma
SNB-78 CNS = tested on: SNB-78 CNS
TK-10 renal = tested on: TK-10 renal
NCI-H460 lung = tested on: NCI-H460 lung
SK-MEL-5 melanoma = tested on: SK-MEL-5 melanoma
A498 renal = tested on: A498 renal
SF-295 CNS = tested on: SF-295 CNS
XF 498 CNS = tested on: XF 498 CNS
KM12 colon = tested on: KM12 colon
NCI-H23 lung = tested on: NCI-H23 lung
NCI-H226 lung = tested on: NCI-H226 lung
EKVX NSCLC = tested on: EKVX NSCLC
HT29 colon = tested on: HT29 colon
OVCAR-4 ovarian = tested on: OVCAR-4 ovarian
SK-MEL-28 melanoma = tested on: SK-MEL-28 melanoma
LXFL 529 NSCLC = tested on: LXFL 529 NSCLC
CCRF-CEM leukemia = tested on: CCRF-CEM leukemia
U251 CNS = tested on: U251 CNS
SNB-75 CNS = tested on: SNB-75 CNS
HL-60(TB) leukemia = tested on: HL-60(TB) leukemia
A549 NSCLC = tested on: A549 NSCLC
SW-620 colon = tested on: SW-620 colon
HOP-18 NSCLC = tested on: HOP-18 NSCLC
HOP-92 NSCLC = tested on: HOP-92 NSCLC
KM20L2 colon = tested on: KM20L2 colon
786-0 renal = tested on: 786-0 renal
RXF 393 renal = tested on: RXF 393 renal
ACHN renal = tested on: ACHN renal
OVCAR-5 ovarian = tested on: OVCAR-5 ovarian
HOP-62 NSCLC = tested on: HOP-62 NSCLC
COLO 205 colon = tested on: COLO 205 colon
HCT-15 colon = tested on: HCT-15 colon
RPMI-8226 leukemia = tested on: RPMI-8226 leukemia
DLD-1 colon = tested on: DLD-1 colon
M19-MEL melanoma = tested on: M19-MEL melanoma
DMS 273 small cell lung = tested on: DMS 273 small cell lung
CAKI-1 renal = tested on: CAKI-1 renal
SF-539 CNS = tested on: SF-539 CNS
SK-OV-3 ovarian = tested on: SK-OV-3 ovarian
HCC-2998 colon = tested on: HCC-2998 colon
UACC-257 melanoma = tested on: UACC-257 melanoma
MALME-3M melanoma = tested on: MALME-3M melanoma
NCI-H522 lung = tested on: NCI-H522 lung
SN12C renal = tested on: SN12C renal
MOLT-4 leukemia = tested on: MOLT-4 leukemia
DMS 114 small cell lung = tested on: DMS 114 small cell lung
UACC-62 melanoma = tested on: UACC-62 melanoma

## O=C1CCC(=O)c2sccc2N1
UO-31 renal
  TGI: > 100 µM
OVCAR-3 ovarian
  TGI: > 100 µM
LOX IMVI melanoma
  TGI: > 100 µM
OVCAR-8 ovarian
  TGI: > 100 µM
HCT-116 colon
  TGI: > 100 µM
SF-268 CNS
  TGI: > 100 µM
SK-MEL-2 melanoma
  TGI: > 100 µM
IGROV1 ovarian
  TGI: > 100 µM
K-562 leukemia
  TGI: > 100 µM
SNB-19 CNS
  TGI: > 100 µM
M14 melanoma
  TGI: > 100 µM
SNB-78 CNS
  TGI: > 100 µM
TK-10 renal
  TGI: > 100 µM
NCI-H460 lung
  TGI: > 100 µM
SK-MEL-5 melanoma
  TGI: > 100 µM
A498 renal
  TGI: > 100 µM
SF-295 CNS
  TGI: > 100 µM
XF 498 CNS
  TGI: > 100 µM
KM12 colon
  TGI: > 100 µM
NCI-H23 lung
  TGI: > 100 µM
NCI-H226 lung
  TGI: > 100 µM
EKVX NSCLC
  TGI: > 100 µM
HT29 colon
  TGI: > 100 µM
OVCAR-4 ovarian
  TGI: > 100 µM
SK-MEL-28 melanoma
  TGI: > 100 µM
LXFL 529 NSCLC
  TGI: > 100 µM
CCRF-CEM leukemia
  TGI: > 100 µM
U251 CNS
  TGI: > 100 µM
SNB-75 CNS
  TGI: > 100 µM
HL-60(TB) leukemia
  TGI: > 100 µM
A549 NSCLC
  TGI: > 100 µM
SW-620 colon
  TGI: > 100 µM
HOP-18 NSCLC
  TGI: > 100 µM
HOP-92 NSCLC
  TGI: > 100 µM
KM20L2 colon
  TGI: > 100 µM
786-0 renal
  TGI: > 100 µM
RXF 393 renal
  TGI: > 100 µM
ACHN renal
  TGI: > 100 µM
OVCAR-5 ovarian
  TGI: > 100 µM
HOP-62 NSCLC
  TGI: > 100 µM
COLO 205 colon
  TGI: > 100 µM
HCT-15 colon
  TGI: > 100 µM
RPMI-8226 leukemia
  TGI: > 100 µM
DLD-1 colon
  TGI: > 100 µM
M19-MEL melanoma
  TGI: > 100 µM
DMS 273 small cell lung
  TGI: > 100 µM
CAKI-1 renal
  TGI: > 100 µM
SF-539 CNS
  TGI: > 100 µM
SK-OV-3 ovarian
  TGI: > 100 µM
HCC-2998 colon
  TGI: > 100 µM
UACC-257 melanoma
  TGI: > 100 µM
MALME-3M melanoma
  TGI: > 100 µM
NCI-H522 lung
  TGI: > 100 µM
SN12C renal
  TGI: > 100 µM
MOLT-4 leukemia
  TGI: > 100 µM
DMS 114 small cell lung
  TGI: > 100 µM

## CCCCNC1=C(C(=O)OCC)/C(=N/NC(=O)c2ccccc2O)CO1
UO-31 renal
  TGI: 28.1 µM
OVCAR-3 ovarian
  TGI: > 100 µM
LOX IMVI melanoma
  TGI: > 100 µM
OVCAR-8 ovarian
  TGI: > 100 µM
HCT-116 colon
  TGI: > 100 µM
SF-268 CNS
  TGI: > 100 µM
SK-MEL-2 melanoma
  TGI: > 100 µM
IGROV1 ovarian
  TGI: > 100 µM
K-562 leukemia
  TGI: > 100 µM
SNB-19 CNS
  TGI: > 100 µM
M14 melanoma
  TGI: > 100 µM
SNB-78 CNS
  TGI: > 100 µM
TK-10 renal
  TGI: > 100 µM
NCI-H460 lung
  TGI: > 100 µM
SK-MEL-5 melanoma
  TGI: > 100 µM
A498 renal
  TGI: > 100 µM
SF-295 CNS
  TGI: > 100 µM
XF 498 CNS
  TGI: > 100 µM
KM12 colon
  TGI: > 100 µM
NCI-H23 lung
  TGI: > 100 µM
NCI-H226 lung
  TGI: > 100 µM
EKVX NSCLC
  TGI: > 100 µM
OVCAR-4 ovarian
  TGI: > 100 µM
SK-MEL-28 melanoma
  TGI: > 100 µM
LXFL 529 NSCLC
  TGI: > 100 µM
CCRF-CEM leukemia
  TGI: > 100 µM
U251 CNS
  TGI: > 100 µM
HL-60(TB) leukemia
  TGI: > 100 µM
A549 NSCLC
  TGI: > 100 µM
SW-620 colon
  TGI: > 100 µM
HOP-18 NSCLC
  TGI: > 100 µM
KM20L2 colon
  TGI: > 100 µM
786-0 renal
  TGI: > 100 µM
RXF 393 renal
  TGI: > 100 µM
OVCAR-5 ovarian
  TGI: > 100 µM
HOP-62 NSCLC
  TGI: > 100 µM
COLO 205 colon
  TGI: > 100 µM
RPMI-8226 leukemia
  TGI: > 100 µM
DLD-1 colon
  TGI: > 100 µM
UACC-62 melanoma
  TGI: > 100 µM
M19-MEL melanoma
  TGI: > 100 µM
CAKI-1 renal
  TGI: > 100 µM
SF-539 CNS
  TGI: > 100 µM
SK-OV-3 ovarian
  TGI: > 100 µM
HCC-2998 colon
  TGI: > 100 µM
UACC-257 melanoma
  TGI: 14.2 µM
MALME-3M melanoma
  TGI: > 100 µM
NCI-H522 lung
  TGI: 57.8 µM
SN12C renal
  TGI: > 100 µM
MOLT-4 leukemia
  TGI: > 100 µM
DMS 114 small cell lung
  TGI: > 100 µM
